This note sets out measurements from PubChem BioAssay (NCI).

The structures appear in SMILES notation. “And” between values parts separate entries of the source, which are not always exact repeats. Identical values can stand only once.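 1) Cells in 96-well plates. 2) Compound, 48 h, 5 concentrations. 3) Linear interpolation between surrounding doses. 4) Unreached endpoint = highest concentration. At the GI50, growth is halved. At the TGI there is no net growth.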 Bounds are passed on as bounds.

Some test systems named below: MCF7 breast; SK-OV-3 ovarian; NCI-H522 lung; K-562 leukemia; OVCAR-3 ovarian; HT29 colon; HCT-15 colon; DU-145 prostate; MDA-MB-435; T-47D breast.
Assay in all cases: growth of human tumour cells (NCI), 48 h

For the compound `O=C1CSc2sc(=S)sc2S1`, the TGI in the assay on MCF7 breast, with SK-OV-3 ovarian, with NCI-H522 lung, in the assay with K-562 leukemia, with OVCAR-3 ovarian and in the assay with HT29 colon was over 100 µM each time. Further, in the assay on HCT-15 colon, the TGI is over 100 µM.
Turning to `CCc1cccc(C(C)C)c1NC1=C([n+]2ccc(C)cc2)C(=O)c2ccccc2C1=O`, the TGI is 1.3 µM with MCF7 breast; 3.92 µM in the assay with DU-145 prostate; 3.12 µM in the assay on MDA-MB-435; 19.7 µM in the assay with SK-OV-3 ovarian; 15.8 µM in the assay on NCI-H522 lung; 20.3 µM in the assay with K-562 leukemia. Besides, the TGI in the assay on OVCAR-3 ovarian was 2.31 µM; in the assay with HT29 colon, 7.75 µM; in the assay with T-47D breast it was 2.24 µM; in the assay with HCT-15 colon, 13.9 µM.
In the case of `NS(=O)(=O)c1ccc(N=Nc2ccc(O)c(O)c2)cc1`, the TGI with MCF7 breast was over 100 µM; in the assay with DU-145 prostate, over 100 µM; in the assay on MDA-MB-435, 32.2 µM; in the assay with SK-OV-3 ovarian, 67 µM; in the assay on NCI-H522 lung it was 3.1 µM; in the assay with K-562 leukemia, over 100 µM. Besides, the TGI is over 100 µM with OVCAR-3 ovarian, 66.5 µM with HT29 colon, over 100 µM with T-47D breast and 12.6 µM in the assay with HCT-15 colon.
For the compound `O=NN(CCCl)C(=O)Nc1ccc(Cl)c(Cl)c1`, the TGI in the assay with MCF7 breast was over 100 µM; in the assay on SK-OV-3 ovarian, over 100 µM; in the assay on NCI-H522 lung, over 89.5 µM; in the assay with K-562 leukemia it was over 100 µM; with OVCAR-3 ovarian, over 100 µM; with HT29 colon it was over 100 µM. In addition, the TGI with HCT-15 colon is over 100 µM.
Take `OCCSCc1cc(Cl)cc(Cl)c1O`: the TGI with MCF7 breast, in the assay with DU-145 prostate, in the assay on MDA-MB-435, with SK-OV-3 ovarian, in the assay on NCI-H522 lung and in the assay with K-562 leukemia was over 100 µM each time. In addition, the TGI in the assay on OVCAR-3 ovarian, with HT29 colon, in the assay on T-47D breast and in the assay with HCT-15 colon was over 100 µM each time.
As to `Nc1nccc2c1ncn2C1C=C(CO)C(O)C1O` (centres undefined), the GI50 was over 1000 µM in the assay with SK-OV-3 ovarian; over 1000 µM in the assay with NCI-H522 lung; 0.249 µM in the assay with K-562 leukemia; 136 µM in the assay on OVCAR-3 ovarian; 0.816 µM in the assay with HT29 colon; 226 µM with HCT-15 colon. Besides, the TGI with SK-OV-3 ovarian, in the assay with NCI-H522 lung, in the assay with K-562 leukemia, in the assay with OVCAR-3 ovarian, in the assay with HT29 colon and in the assay with HCT-15 colon was over 1000 µM each time.
On to `COc1cc(CCC(=O)O)c2cc3ccccc3cc2c1O`, for which the TGI in the assay with MCF7 breast is 34.4 µM; in the assay with MDA-MB-435, 34.4 µM; with SK-OV-3 ovarian, over 100 µM; with NCI-H522 lung, 45.1 µM; with K-562 leukemia, 42.4 µM; in the assay on OVCAR-3 ovarian, 51.7 µM. The TGI with HT29 colon was 43.8 µM; in the assay with T-47D breast it was 36.3 µM; in the assay with HCT-15 colon, 43.9 µM.
Consider `Cc1cc(O)c2cc3c(O)c(O)ccc3cc2c1`, for which the TGI in the assay with MCF7 breast was over 87 µM; in the assay with DU-145 prostate it was over 50.8 µM; in the assay on MDA-MB-435, 22.8 µM; in the assay on SK-OV-3 ovarian, 9.82 µM; in the assay on NCI-H522 lung, 3.98 µM; in the assay with K-562 leukemia, 3.33 µM. In addition, the TGI in the assay with OVCAR-3 ovarian was 6.04 µM; with HT29 colon, 8.43 µM; in the assay with T-47D breast, 6.28 µM; in the assay with HCT-15 colon it was 5.91 µM.
For `Cc1ccc(NC(=O)CC(=O)n2nc(-c3ccccc3)c(N=Nc3ccccc3C(=O)O)c2-c2ccccc2)cc1`, the TGI with SK-OV-3 ovarian, in the assay with NCI-H522 lung, in the assay on K-562 leukemia, with OVCAR-3 ovarian and in the assay on HCT-15 colon was over 100 µM in each case.
On to `COc1cccc2c1C(=O)c1c(O)c3c(c(O)c1C2=O)C[C@@](O)(C(C)=O)C[C@@H]3OC1CC(N(C)C)C(O)C(C)O1` (some centres undefined), for which the TGI in the assay on MCF7 breast is 0.405 µM; with DU-145 prostate, 0.00739 µM; with MDA-MB-435, 0.00234 µM; with SK-OV-3 ovarian it was 3.17 µM and 3.85 µM; in the assay with K-562 leukemia, 1.09 µM and 0.182 µM; in the assay with HT29 colon, 5.91 µM. Besides, the TGI with T-47D breast was found to be 0.00329 µM. Further, the GI50 in the assay with SK-OV-3 ovarian was 0.144 µM and 0.115 µM; in the assay with NCI-H522 lung, 0.036 µM and 0.021 µM; in the assay on K-562 leukemia it was 0.00456 µM; in the assay with OVCAR-3 ovarian it was 0.108 µM and 0.155 µM; with HT29 colon, 0.00516 µM; in the assay with HCT-15 colon, 0.0211 µM.
Regarding `O=CN(O)CC(=O)O.[Ni]`, the TGI in the assay with MCF7 breast, in the assay on DU-145 prostate, in the assay on MDA-MB-435, in the assay with SK-OV-3 ovarian, in the assay on NCI-H522 lung and with K-562 leukemia was over 100 µM each time. Further, the TGI in the assay on OVCAR-3 ovarian, in the assay with HT29 colon, in the assay on T-47D breast and in the assay on HCT-15 colon was over 100 µM throughout. Also, in the assay on NCI-H522 lung, the GI50 is over 100 µM.
